Results from patent publication US20260159511A1, “SMALL MOLECULE STING ANTAGONISTS” (CURADEV PHARMA PVT. LTD., priority 2021, published 2026).

Tested on: IRF pathway in THP1-Dual™ cells, THP-1 (HAQ)
Test: Reporter gene expression assay in THP-1 cells (THP1-Dual, IRF pathway Lucia luciferase reporter, 2′,3′-cGAMP stimulation)
Assay type: cell-based, human
Conditions: Homo sapiens; THP1-Dual cells preincubated with compound 10 minutes, stimulation with 5 μM 2′,3′-cGAMP for 20 hr, QUANTI-Luc readout of the supernatant; read-out: THP-1 (HAQ) Activity (IC50 value range)
Protocol: Reporter Gene Expression Assay in THP-1 Cells
THP1-Dual™ cells (Invivogen) were derived from the human THP-1 monocyte cell line by stable integration of two inducible reporter constructs. As a result, THP1-Dual™ cells allow the simultaneous study of the IRF pathway, by assessing the activity of a secreted luciferase (Lucia) and the NF-κB pathway, by monitoring the activity of secreted SEAP. 5×10^4 THP1-Dual™ cells were seeded in 384-well plates in growth medium and preincubated with novel compounds for 10 minutes followed by stimulation with 5 μM 2′,3′-cGAMP. After 20 hr of stimulation the supernatant was removed and the IRF pathway reporter protein was readily measured in the cell culture supernatant using QUANTI-Luc™ (Invivogen), a luciferase detection reagent on a Spectramax i3X luminometer.

| IC50 | Compound |
| --- | --- |
| < 1000 nM | O=C(Nc1ccc2c(c1)N(Cc1ccccc1)C(=O)CS2)Nc1c[nH]c2ccc(-c3cnco3)cc12 [Example 39, 1-(4-benzyl-3-oxo-3,4-dihydro-2H-benzo[b][1,4]thiazin-6-yl)-3-(5-(oxazol-5-yl)-1H-indol-3-yl)urea] |
| < 1000 nM | O=C(Nc1ccc2c(c1)OCCN2Cc1ccccc1)Nc1c[nH]c2ccccc12 [Example 72, 1-(4-benzyl-3,4-dihydro-2H-benzo[b][1,4]oxazin-7-yl)-3-(1H-indol-3-yl)urea] |
| < 1000 nM | O=C(Nc1ccc2c(c1)N(Cc1ccccc1)C(=O)CO2)Nc1c[nH]c2ccccc12 [Example 4, 1-(4-benzyl-3-oxo-3,4-dihydro-2H-benzo[b][1,4]oxazin-6-yl)-3-(1H-indol-3-yl)urea] |
| < 1000 nM | O=C(Nc1ccc2c(c1)SCCN2Cc1ccccn1)Nc1c[nH]c2ccccc12 [Example 89, 1-(1H-indol-3-yl)-3-(4-(pyridin-2-ylmethyl)-3,4-dihydro-2H-benzo[b][1,4]thiazin-7-yl)urea] |
| < 1000 nM | O=C(Nc1ccc2c(c1)N(Cc1ccccc1)C(=O)CS2)Nc1c[nH]c2ncccc12 [Example 13, 1-(4-benzyl-3-oxo-3,4-dihydro-2H-benzo[b][1,4]thiazin-6-yl)-3-(1H-pyrrolo[2,3-b]pyridin-3-yl)urea] |
| 1000 to 10000 nM | O=C(Nc1ccc2c(c1)N(Cc1ccccn1)C(=O)CS2)Nc1c[nH]c2ccccc12 [Example 19, 1-(1H-indol-3-yl)-3-(3-oxo-4-(pyridin-2-ylmethyl)-3,4-dihydro-2H-benzo[b][1,4]thiazin-6-yl)urea] |
| < 1000 nM | CC1CN(Cc2c(F)cccc2Cl)c2cc(NC(=O)Nc3c[nH]c4ccccc34)ccc2S1 (stereo not shown) [Example 84, 1-(4-(2-chloro-6-fluorobenzyl)-2-methyl-3,4-dihydro-2H-benzo[b][1,4]thiazin-6-yl)-3-(1H-indol-3-yl)urea] |
| < 1000 nM | O=C(Nc1ccc2c(c1)N(Cc1ccccc1)CCS2)Nc1c[nH]c2ncc(F)cc12 [Example 100, 1-(4-benzyl-3,4-dihydro-2H-benzo[b][1,4]thiazin-6-yl)-3-(5-fluoro-1H-pyrrolo[2,3-b]pyridin-3-yl)urea] |
| < 1000 nM | O=C(Nc1ccc2c(c1)N(Cc1cc(F)cc(Cl)c1)CCS2)Nc1c[nH]c2ccc(F)cc12 [Example 101, 1-(4-(3-chloro-5-fluorobenzyl)-3,4-dihydro-2H-benzo[b][1,4]thiazin-6-yl)-3-(5-fluoro-1H-indol-3-yl)urea] |
| < 1000 nM | O=C(Nc1ccc2c(c1)N(Cc1ccccc1)C(=O)CS2)Nc1c[nH]c2cnccc12 [Example 15, 1-(4-benzyl-3-oxo-3,4-dihydro-2H-benzo[b][1,4]thiazin-6-yl)-3-(1H-pyrrolo[2,3-c]pyridin-3-yl)urea] |
| < 1000 nM | O=C(Nc1ccc2c(c1)N(Cc1ccccc1)CCO2)Nc1c[nH]c2ccccc12 [Example 71, 1-(4-benzyl-3,4-dihydro-2H-benzo[b][1,4]oxazin-6-yl)-3-(1H-indol-3-yl)urea] |
| 1000 to 10000 nM | O=C(Nc1ccc2c(c1)N(Cc1ccccc1)C(=O)CS2)Nc1c[nH]c2cccnc12 [Example 17, 1-(4-benzyl-3-oxo-3,4-dihydro-2H-benzo[b][1,4]thiazin-6-yl)-3-(1H-pyrrolo[3,2-b]pyridin-3-yl)urea] |
| < 1000 nM | CC1CN(C(=O)c2ccccc2)c2cc(NC(=O)Nc3c[nH]c4ccccc34)ccc2S1 (stereo not shown) [Example 70, 1-(4-Benzoyl-2-methyl-3,4-dihydro-2H-benzo[b][1,4]thiazin-6-yl)-3-(1H-indol-3-yl)urea] |
| < 1000 nM | O=C(Nc1ccc2c(c1)N(Cc1ccccc1)C(=O)CS2)Nc1c[nH]c2ncc(Br)cc12 [Example 6, 1-(4-benzyl-3-oxo-3,4-dihydro-2H-benzo[b][1,4]thiazin-6-yl)-3-(5-bromo-1H-pyrrolo[2,3-b]pyridin-3-yl)urea] |
| 1000 to 10000 nM | C[C@H]1c2ccc(NC(=O)Nc3c[nH]c4ccccc34)cc2N(Cc2c(F)ccc(O)c2Cl)C(=O)N1C [Example 108, (S)-1-(1-(2-chloro-6-fluoro-3-hydroxybenzyl)-3,4-dimethyl-2-oxo-1,2,3,4-tetrahydroquinazolin-7-yl)-3-(1H-indol-3-yl)urea] |
| < 1000 nM | CC1CN(Cc2ccccc2)c2cc(NC(=O)Nc3c[nH]c4ccc(F)cc34)ccc2S1 (stereo not shown) [Example 97, 1-(4-benzyl-2-methyl-3,4-dihydro-2H-benzo[b][1,4]thiazin-6-yl)-3-(5-fluoro-1H-indol-3-yl)urea] |
| 1000 to 10000 nM | Cc1[nH]c2ccccc2c1NC(=O)Nc1ccc2c(c1)N(Cc1ccccc1)C(=O)CS2 [Example 9, 1-(4-benzyl-3-oxo-3,4-dihydro-2H-benzo[b][1,4]thiazin-6-yl)-3-(2-methyl-1H-indol-3-yl)urea] |

| IC50 | Compound |
| --- | --- |
| < 1000 nM | O=C(Nc1ccc2c(c1)N(Cc1cc(F)cc(F)c1)CCS2)Nc1c[nH]c2ccc(F)cc12 [Example 93, 1-(4-(3,5-difluorobenzyl)-3,4-dihydro-2H-benzo[b][1,4]thiazin-6-yl)-3-(5-fluoro-1H-indol-3-yl)urea] |
| 1000 to 10000 nM | COCCn1cc(-c2ccc3[nH]cc(NC(=O)Nc4ccc5c(c4)N(Cc4ccccc4)C(=O)CS5)c3c2)cn1 [Example 49, 1-(4-benzyl-3-oxo-3,4-dihydro-2H-benzo[b][1,4]thiazin-6-yl)-3-(5-(1-(2-methoxyethyl)-1H-pyrazol-4-yl)-1H-indol-3-yl)urea] |
| < 1000 nM | O=C(Nc1ccc2c(c1)N(Cc1ccccc1)C(=O)CS2)Nc1c[nH]c2ccc(-c3cccnc3)cc12 [Example 55, 1-(4-benzyl-3-oxo-3,4-dihydro-2H-benzo[b][1,4]thiazin-6-yl)-3-(5-(pyridin-3-yl)-1H-indol-3-yl)urea] |
| < 1000 nM | O=C(Nc1ccc2c(c1)N(Cc1ccccc1)C(=O)CS2)Nc1c[nH]c2ccc(-c3cncnc3)cc12 [Example 56, 1-(4-benzyl-3-oxo-3,4-dihydro-2H-benzo[b][1,4]thiazin-6-yl)-3-(5-(pyrimidin-5-yl)-1H-indol-3-yl)urea] |
| < 1000 nM | O=C(Nc1ccc2c(c1)N(Cc1ccccc1)C(=O)CS2)Nc1c[nH]c2ccc(-c3cnn(C(F)F)c3)cc12 [Example 50, 1-(4-benzyl-3-oxo-3,4-dihydro-2H-benzo[b][1,4]thiazin-6-yl)-3-(5-(1-(difluoromethyl)-1H-pyrazol-4-yl)-1H-indol-3-yl)urea] |
| < 1000 nM | O=C(Nc1ccc2c(c1)N(Cc1cc(F)cc(F)c1)CCS2)Nc1c[nH]c2ccccc12 [Example 92, 1-(4-(3,5-difluorobenzyl)-3,4-dihydro-2H-benzo[b][1,4]thiazin-6-yl)-3-(1H-indol-3-yl)urea] |
| < 1000 nM | N#Cc1ccc2[nH]cc(NC(=O)Nc3ccc4c(c3)N(Cc3ccccc3)CCS4)c2c1 [Example 109, 1-(4-benzyl-3,4-dihydro-2H-benzo[b][1,4]thiazin-6-yl)-3-(5-cyano-1H-indol-3-yl)urea] |
| < 1000 nM | O=C(Nc1ccc2c(c1)SCCN2Cc1ccccc1)Nc1c[nH]c2ccccc12 [Example 73, 1-(4-benzyl-3,4-dihydro-2H-benzo[b][1,4]thiazin-7-yl)-3-(1H-indol-3-yl)urea] |
| < 1000 nM | N#Cc1cccc(-c2ccc3[nH]cc(NC(=O)Nc4ccc5c(c4)N(Cc4ccccc4)C(=O)CS5)c3c2)c1 [Example 45, 1-(4-benzyl-3-oxo-3,4-dihydro-2H-benzo[b][1,4]thiazin-6-yl)-3-(5-(3-cyanophenyl)-1H-indol-3-yl)urea] |
| < 1000 nM | O=C(Nc1ccc2c(c1)N(Cc1c(F)ccc(O)c1Cl)C(=O)CS2)Nc1c[nH]c2ccccc12 [Example 34, 1-(4-(2-chloro-6-fluoro-3-hydroxybenzyl)-3-oxo-3,4-dihydro-2H-benzo[b][1,4]thiazin-6-yl)-3-(1H-indol-3-yl)urea] |
| < 1000 nM | O=C(Nc1ccc2c(c1)OCCN2Cc1c(F)cccc1Cl)Nc1c[nH]c2ccccc12 [Example 76, 1-(4-(2-chloro-6-fluorobenzyl)-3,4-dihydro-2H-benzo[b][1,4]oxazin-7-yl)-3-(1H-indol-3-yl)urea] |
| < 1000 nM | Cc1cc(CN2CCSc3cc(NC(=O)Nc4c[nH]c5ccccc45)ccc32)no1 [Example 96, 1-(1H-indol-3-yl)-3-(4-((5-methylisoxazol-3-yl)methyl)-3,4-dihydro-2H-benzo[b][1,4]thiazin-7-yl)urea] |
| 1000 to 10000 nM | NC(=O)c1cccc(CN2C(=O)CSc3ccc(NC(=O)Nc4c[nH]c5ccccc45)cc32)c1 [Example 21, 3-((6-(3-(1H-indol-3-yl)ureido)-3-oxo-2,3-dihydro-4H-benzo[b][1,4]thiazin-4-yl)methyl)benzamide] |
| < 1000 nM | C[C@H]1c2ccc(NC(=O)Nc3c[nH]c4ccccc34)cc2N(Cc2ccccc2)C(=O)N1C [Example 107, (S)-1-(1-Benzyl-3,4-dimethyl-2-oxo-1,2,3,4-tetrahydroquinazolin-7-yl)-3-(1H-indol-3-yl)urea] |
| 1000 to 10000 nM | O=C(Nc1ccc2c(c1)N(Cc1cccnc1)C(=O)CS2)Nc1c[nH]c2ccccc12 [Example 24, 1-(1H-indol-3-yl)-3-(3-oxo-4-(pyridin-3-ylmethyl)-3,4-dihydro-2H-benzo[b][1,4]thiazin-6-yl)urea] |
| < 1000 nM | O=C(Nc1ccc2c(c1)N(Cc1cc(F)cc(F)c1)C(=O)CS2)Nc1c[nH]c2ccc(F)cc12 [Example 32, 1-(4-(3,5-difluorobenzyl)-3-oxo-3,4-dihydro-2H-benzo[b][1,4]thiazin-6-yl)-3-(5-fluoro-1H-indol-3-yl)urea] |

Same assay, conditions: THP1-Dual cells preincubated with compound 10 minutes, stimulation with 5 μM 2′,3′-cGAMP for 20 hr, QUANTI-Luc readout of the supernatant; read-out: THP-1 (HAQ) Activity (IC50 value range)

| IC50 | Compound |
| --- | --- |
| < 1000 nM | CC1Sc2ccc(NC(=O)Nc3c[nH]c4ccccc34)cc2N(Cc2ccccc2)C1=O (stereo not shown) [Example 36, 1-(4-benzyl-2-methyl-3-oxo-3,4-dihydro-2H-benzo[b][1,4]thiazin-6-yl)-3-(1H-indol-3-yl)urea] |
